Test systems include DU-145 prostate; EKVX NSCLC; HCC-2998 colon; MDA-MB-231 breast; NCI-H226 lung; OVCAR-4 ovarian; PC-3 prostate; SF-539 CNS; SK-OV-3 ovarian; SNB-75 CNS.
Assay in all cases: growth of human tumour cells (NCI), 48 h

Each structure is given as a SMILES string. Several values for one entry are separate records, joined by “and”; a condition that tells them apart may be missing. Equal values may be shown once.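 How tested: cells in 96-well plates exposed to compound for 48 hours at five concentrations. GI50 = concentration required for 50% inhibition of growth. TGI denotes the concentration required for complete inhibition of growth.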 Where a SMILES comes first, the peptide text is derived from it.

As for `S=c1nc2[nH]ncc2c(N/N=C/c2ccccc2)[nH]1`, the GI50 in the assay on DU-145 prostate was above 100 µM; in the assay with EKVX NSCLC, above 100 µM; in the assay with HCC-2998 colon, above 100 µM; in the assay on MDA-MB-231 breast, 19.8 µM; with NCI-H226 lung it was above 100 µM; in the assay on OVCAR-4 ovarian it was above 100 µM. For the same molecule, the GI50 in the assay on PC-3 prostate, with SF-539 CNS, in the assay on SK-OV-3 ovarian and with SNB-75 CNS was above 100 µM throughout. Also, the TGI is above 100 µM with DU-145 prostate; above 100 µM in the assay on EKVX NSCLC; above 100 µM in the assay with HCC-2998 colon; 71.4 µM in the assay with MDA-MB-231 breast; above 100 µM in the assay on NCI-H226 lung; above 100 µM with OVCAR-4 ovarian. The TGI with PC-3 prostate, in the assay with SF-539 CNS, with SK-OV-3 ovarian and in the assay with SNB-75 CNS was above 100 µM throughout.
As to `Cc1c2c(nn1C(=O)c1nn(-c3ccc(Cl)cc3)cc1O)-c1ccccc1CC2`, the GI50 in the assay with DU-145 prostate is 0.0497 µM; in the assay on EKVX NSCLC it was 0.0707 µM; in the assay with HCC-2998 colon, 0.377 µM; in the assay on MDA-MB-231 breast, 1.62 µM; in the assay with NCI-H226 lung it was 0.0968 µM; in the assay with OVCAR-4 ovarian, 0.246 µM. Besides, the GI50 in the assay on PC-3 prostate is 0.0373 µM; with SF-539 CNS, 0.041 µM; in the assay on SK-OV-3 ovarian it was 0.202 µM; in the assay with SNB-75 CNS, 0.0303 µM. Also, the TGI in the assay on DU-145 prostate is above 100 µM; in the assay on EKVX NSCLC, above 100 µM; in the assay with HCC-2998 colon, above 100 µM; with MDA-MB-231 breast it was above 100 µM; in the assay on NCI-H226 lung, above 25.7 µM; with OVCAR-4 ovarian, above 100 µM. Besides, the TGI is above 100 µM with PC-3 prostate, 28.1 µM in the assay with SF-539 CNS, above 100 µM in the assay with SK-OV-3 ovarian and above 100 µM in the assay with SNB-75 CNS.
Take `CNNCc1ccc(C(=O)NC(C)C)cc1`: the TGI in the assay with DU-145 prostate, in the assay with EKVX NSCLC, with HCC-2998 colon, in the assay on MDA-MB-231 breast, with NCI-H226 lung and in the assay on OVCAR-4 ovarian was above 500 µM throughout. The TGI in the assay on PC-3 prostate, in the assay on SF-539 CNS, in the assay with SK-OV-3 ovarian and in the assay on SNB-75 CNS was above 500 µM in each case. For the same molecule, the GI50 in the assay on HCC-2998 colon, in the assay with NCI-H226 lung and in the assay with SNB-75 CNS was above 500 µM each time.
Regarding `CC(=O)O[C@H]1C(=O)O[C@@H]2C[C@H]3C(C)=CC(=O)[C@@H](O)[C@]3(C)[C@H]3[C@@]4(O)OC[C@]32[C@@H]1[C@@H](C)[C@H]4O`, the TGI in the assay with DU-145 prostate is 0.176 µM; in the assay with EKVX NSCLC it was 1.12 µM and 0.219 µM; in the assay with HCC-2998 colon it was 0.548 µM and 0.271 µM; with MDA-MB-231 breast it was 0.399 µM; in the assay on NCI-H226 lung, 0.0775 µM and 0.166 µM; in the assay on OVCAR-4 ovarian, 0.758 µM and 0.409 µM. Moreover, the TGI was 0.137 µM with PC-3 prostate; 0.0151 µM and 0.0663 µM with SF-539 CNS; 4.04 µM and 3.35 µM in the assay with SK-OV-3 ovarian; 0.104 µM and 0.154 µM in the assay on SNB-75 CNS. The GI50 in the assay with EKVX NSCLC was 0.159 µM; in the assay with HCC-2998 colon, 0.032 µM; in the assay on NCI-H226 lung, < 0.0205 µM and 0.0366 µM; in the assay with OVCAR-4 ovarian, 0.0394 µM; in the assay on SF-539 CNS, below 0.01 µM; in the assay with SK-OV-3 ovarian, 0.237 µM. For the same molecule, the GI50 in the assay on SNB-75 CNS was below 0.017 µM.
As to `CC(C)CC(NC(=O)C(CC(C)C)NC(=O)C(Cc1cnc[nH]1)NC(=O)C(C)NC(=O)C(NC(=O)C(C)NC(=O)C(Cc1c[nH]c2ccccc12)NC(=O)C(CCC(=O)O)NC(=O)C(N)Cc1ccccc1)C(C)C)C(N)=O` (configuration not stated) (H-FEWAVAHLL-NH2; configuration not given here), the TGI with DU-145 prostate was above 12.5 µM; in the assay on EKVX NSCLC, above 100 µM; in the assay with HCC-2998 colon it was above 100 µM; in the assay on MDA-MB-231 breast it was above 12.5 µM; in the assay with NCI-H226 lung, above 12.5 µM; in the assay with OVCAR-4 ovarian, above 100 µM. For the same molecule, the TGI was above 12.5 µM in the assay on PC-3 prostate, above 100 µM in the assay on SF-539 CNS, above 100 µM with SK-OV-3 ovarian and above 100 µM in the assay with SNB-75 CNS. In addition, the GI50 in the assay on EKVX NSCLC, in the assay with HCC-2998 colon, with OVCAR-4 ovarian, in the assay on SF-539 CNS and with SK-OV-3 ovarian was above 100 µM in each case.
Regarding `O=[N+]([O-])c1cc(CCl)ccc1CCl`, the TGI was 2.99 µM in the assay with DU-145 prostate; 3.38 µM with EKVX NSCLC; 4.01 µM in the assay with HCC-2998 colon; 4.5 µM with MDA-MB-231 breast; 11 µM in the assay on NCI-H226 lung; 3.22 µM with OVCAR-4 ovarian. The TGI with PC-3 prostate came to 3.08 µM; in the assay with SF-539 CNS, 7.14 µM; in the assay on SK-OV-3 ovarian, 26 µM; in the assay on SNB-75 CNS, 6.88 µM.
Take `N#CC(=S)Nc1ccc(Cl)c(Cl)c1`: the TGI is above 100 µM with DU-145 prostate; 61.1 µM in the assay on EKVX NSCLC; 34.8 µM in the assay with HCC-2998 colon; 43.4 µM in the assay on MDA-MB-231 breast; 60.5 µM in the assay on NCI-H226 lung; above 100 µM in the assay on OVCAR-4 ovarian. Also, the TGI with PC-3 prostate is 44.8 µM; in the assay with SF-539 CNS, 48.5 µM; in the assay on SK-OV-3 ovarian it was 61.6 µM; in the assay with SNB-75 CNS it was 74.7 µM. Besides, the GI50 in the assay with OVCAR-4 ovarian is 5.67 µM.
On to `O=C1OCc2c1cc(F)cc2[N+](=O)[O-]`, for which the GI50 in the assay on DU-145 prostate, with HCC-2998 colon, in the assay on MDA-MB-231 breast, in the assay on NCI-H226 lung, with OVCAR-4 ovarian and in the assay with PC-3 prostate was above 100 µM in each case. The GI50 in the assay with SF-539 CNS, with SK-OV-3 ovarian and in the assay on SNB-75 CNS was above 100 µM each time. The TGI with DU-145 prostate, with HCC-2998 colon, in the assay on MDA-MB-231 breast, with NCI-H226 lung, in the assay on OVCAR-4 ovarian and with PC-3 prostate was above 100 µM in each case. Moreover, the TGI with SF-539 CNS, in the assay with SK-OV-3 ovarian and with SNB-75 CNS was above 100 µM throughout.
As to `C/C(CC(=O)NNc1ccc([N+](=O)[O-])cc1)=N\Nc1ccc([N+](=O)[O-])cc1`, the GI50 was 17.4 µM in the assay on DU-145 prostate; 22.4 µM in the assay with EKVX NSCLC; 6.4 µM in the assay with HCC-2998 colon; 2.12 µM with MDA-MB-231 breast; 17.9 µM in the assay with NCI-H226 lung; 5.92 µM with OVCAR-4 ovarian. The GI50 is 4.26 µM with PC-3 prostate, 5.97 µM in the assay on SF-539 CNS and 22.1 µM in the assay on SNB-75 CNS. Also, the TGI with DU-145 prostate is 89.9 µM; in the assay on EKVX NSCLC, above 100 µM; in the assay on HCC-2998 colon, above 100 µM; in the assay on MDA-MB-231 breast, 19.7 µM; in the assay on NCI-H226 lung, above 100 µM; with OVCAR-4 ovarian, above 100 µM. For the same molecule, the TGI with PC-3 prostate is above 100 µM; in the assay with SF-539 CNS it was above 100 µM; in the assay with SNB-75 CNS it was 93.5 µM.
